This data set has as its system NOD mice. As to the kind of experiment: antibody response of NOD mice to NP4Ova+Alum immunization on idelalisib chow. In kind it is in vivo, mouse. The procedure: Diet dose (DD) is calculated by multiplying the single daily dose (SD) by the body weight of a mouse (BW) and dividing that by the daily food intake (FI) [DD=(SD×BW)/FI].
For VH125.NOD experiments animals are placed on control chow immediately after weaning.
HEL conjugated to SRBCs was used to produce antigen for experiments with MD4 B cells. SRBCs (Colorado Serum Company) were stored in Alsever's solution at 4° C. SRBCs are washed 3 times in PBS prior to use. 1 ml of 50 mg/ml of the chemical crosslinker N-(3-Dimethylaminopropyl)-N-ethylcarbodiimide hydrochloride (Sigma-Aldrich) was added to 1 ml packed SRBCs and 15 ml of 5 mg/ml HEL (Sigma-Aldrich), mixed and rotated at room temperature for 45 minutes. Mice were immunized IP with 200 μl of a 5% HEL-SRBC in PBS. For NP4Ova-Alum immunizations, 10 mg/ml alum and 5 mg/ml NP4Ova were mixed to a final concentration of 250 μg/ml NP4Ova and 2.5 mg/ml alum and rotated for 3 hours at room temperature. […] Mice were then immunized with NP4Ova-alum IP in 200 μl/mouse, and responses were measured on day 7 and day 14 post-immunization.
For detection of IgM^a anti-Ars antibodies, microtiter plates were coated with 10 μg/ml Ars-BSA16 in PBS and blocked with 2 mg/ml BSA in PBS 0.05% Tween-20. For detection of IgM^a anti-HEL antibodies, microtiter plates were coated with 10 μg/ml HEL in PBS and blocked with 2 mg/ml BSA in PBS 0.05% Tween-20. For detection of total NP-specific IgM and IgG, microtiter plates were coated with 20 μg/ml NP27BSA and blocked with 2 mg/ml BSA in PBS 0.05% Tween-20. For detection of high affinity NP-specific IgM and IgG, microtiter plates were coated with 20 μg/ml NP2BSA and blocked with 2 mg/ml BSA in PBS 0.05% Tween-20. Serial dilutions of mouse serum in PBS were added and incubated overnight at 4° C. Ars/A1-derived IgM^a antibodies and MD4-derived HEL IgM^a antibodies were detected with biotinylated DS.1 anti-IgM^a (BD Pharmingen) in PBS, followed by Streptavidin-HRP (Thermo Fisher Scientific). For NP-specific IgM antibodies were detected using goat-anti-mouse IgM-HRP (SouthernBiotech). For NP-specific IgG antibodies were detected using goat-anti-mouse IgG-HRP (SouthernBiotech). Between all steps, plates were washed 3 times with PBS 0.05% Tween-20. The ELISA was developed with TMB single solution (Invitrogen) and the reaction was stopped with 1M HCl. OD was measured at 450 nm using a VERSAMax plate reader (Molecular Devices) and data analyzed with SoftMax Pro6 software.
For detection of IgM^a anti-Ars antibodies, microtiter plates were coated with 10 μg/ml Ars-BSA16 in PBS and blocked with 2 mg/ml BSA in PBS 0.05% Tween-20. For detection of IgM^a anti-HEL antibodies, microtiter plates were coated with 10 μg/ml HEL in PBS and blocked with 2 mg/ml BSA in PBS 0.05% Tween-20. For detection of total NP-specific IgM and IgG, microtiter plates were coated with 20 μg/ml NP27BSA and blocked with 2 mg/ml BSA in PBS 0.05% Tween-20. For detection of high affinity NP-specific IgM and IgG, microtiter plates were coated with 20 μg/ml NP2BSA and blocked with 2 mg/ml BSA in PBS 0.05% Tween-20. Plates were washed 3 times prior to use with PBS 0.05% Tween-20. RBC-depleted single-cell suspension of splenocytes in complete medium were added in two-fold serial dilutions starting at 1/100th of a spleen in the first well. Plates were incubated overnight at 37° C. Ars/A1-derived IgM^a antibodies and MD4-derived HEL IgM^a antibodies were detected with biotinylated DS.1 anti-IgM^a (BD Pharmingen) in PBS, followed by Streptavidin-AP (SouthernBiotech). For NP-specific IgM antibodies were detected using goat-anti-mouse IgM-AP (SouthernBiotech). For NP-specific IgG antibodies were detected using goat-anti-mouse IgG-AP (SouthernBiotech). Between all steps, plates were washed 3 times with PBS 0.05% Tween-20. The plates were developed by incubated with ELISPOT developing buffer ([…] 5-bromochloro-3-indolyl phosphate p-toluidine, […], 100 mM Tris, and 10 mM MgCl2, pH 9.5) for 1 hour. […]

[1] abbreviates: 0.9375 mg/kg chow, 14 days post-immunization, vs vehicle control.
[2] abbreviates: 0.9375 mg/kg chow, day 14 post-immunization, vs vehicle control.

`CC[C@H](Nc1ncnc2nc[nH]c12)c1nc2cccc(F)c2c(=O)n1-c1ccccc1` [idelalisib, 5-fluoro-3-phenyl-2-[(1S)-1-(7H-purin-6-ylamino)propyl]-4(3H)-quinazolinone]: the “anti-NP IgM response in the spleen” value (0.9375 mg/kg chow for 4 weeks, 14 days post-immunization, vs vehicle control) was “not different”. Further, for the setting “0.9375 mg/kg chow vs vehicle control”, the “B cell numbers in the spleens” value is reported as “no difference”. Besides, under setting [1], the “high affinity IgG anti-NP ASCs/spleen” value is recorded as “no observed difference”, the “number of high-affinity IgM anti-NP ASCs/spleen” value was “equivalent”, the “number of total anti-NP IgM antibody secreting cells (ASCs) per spleen” value was “equivalent” and the “total IgG anti-NP ASCs/spleen” value is “no observed difference”. Under setting [2], the “levels of IgG anti-NP found in the periphery” value is recorded as “equivalent” and the “levels of IgM anti-NP found in the periphery” value was “equivalent”.

The values above are taken from patent US11701361B2, “p110-delta inhibitors treat and prevent autoimmunity while sparing the ability to mount an immune response to exogenous immunogens” (THE REGENTS OF THE UNIVERSITY OF COLORADO, priority 2018, dated 2023).
